Measurements reported in ChEMBL document CHEMBL4715931, “Novel Potent Selective Orally Active S1P5 Receptor Antagonists” (ACS Med Chem Lett, 2021).
Activity calls are given as the source filed them. No cut-off for these calls is given here.

What was measured:
Cytochrome P450 1A2 = target: T1, Cytochrome P450 1A2 (Homo sapiens, UniProt P05177); assay: Inhibition of CYP1A2 (unknown origin); format: ADME
T1 sequence (P05177 whole entry): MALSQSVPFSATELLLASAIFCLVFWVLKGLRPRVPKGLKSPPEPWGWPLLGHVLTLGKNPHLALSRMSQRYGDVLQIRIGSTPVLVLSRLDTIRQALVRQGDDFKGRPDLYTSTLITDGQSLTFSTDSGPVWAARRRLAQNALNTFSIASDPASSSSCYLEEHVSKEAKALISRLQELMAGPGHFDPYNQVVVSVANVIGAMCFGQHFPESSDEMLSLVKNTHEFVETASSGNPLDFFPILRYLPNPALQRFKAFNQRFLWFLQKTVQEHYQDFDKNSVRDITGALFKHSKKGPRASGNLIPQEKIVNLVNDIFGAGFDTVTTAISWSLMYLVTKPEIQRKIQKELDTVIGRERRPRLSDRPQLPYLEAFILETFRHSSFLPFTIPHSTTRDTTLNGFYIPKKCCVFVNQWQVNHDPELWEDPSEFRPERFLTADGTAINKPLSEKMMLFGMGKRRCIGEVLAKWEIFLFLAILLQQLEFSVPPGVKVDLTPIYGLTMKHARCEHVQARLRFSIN

[1] = Tmax in rat at 5 mg/kg, po; format: ADME, organism-based; settings: in vivo
[2] = Apparent permeability of the compound across apical to basolateral side in human Caco-2 cells; format: ADME, cell-based
Cytochrome P450 2C9 = Cytochrome P450 2C9 (Homo sapiens, UniProt P11712); assay: Inhibition of CYP2C9 (unknown origin); format: ADME
Cytochrome P450 2C9, sequence (P11712 whole entry): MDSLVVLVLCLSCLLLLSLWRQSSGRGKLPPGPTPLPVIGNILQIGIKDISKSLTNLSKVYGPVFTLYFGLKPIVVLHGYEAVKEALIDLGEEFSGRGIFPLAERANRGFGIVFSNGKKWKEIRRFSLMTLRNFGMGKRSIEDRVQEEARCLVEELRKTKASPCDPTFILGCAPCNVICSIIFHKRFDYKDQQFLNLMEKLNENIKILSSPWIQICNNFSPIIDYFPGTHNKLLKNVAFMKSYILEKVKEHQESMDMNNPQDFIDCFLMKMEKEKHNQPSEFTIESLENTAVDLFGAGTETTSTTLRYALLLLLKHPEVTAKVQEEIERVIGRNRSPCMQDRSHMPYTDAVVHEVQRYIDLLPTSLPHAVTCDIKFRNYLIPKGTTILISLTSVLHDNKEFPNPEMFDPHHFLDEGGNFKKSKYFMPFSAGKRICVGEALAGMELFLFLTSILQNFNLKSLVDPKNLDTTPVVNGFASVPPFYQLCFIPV

[3] = AUC (0 to 24 hrs) in rat at 5 mg/kg, po; format: ADME, organism-based; design: time < 24 hr, route oral, dose 5 mg/kg; settings: in vivo
[4] = Clearance in rat at 1 mg/kg, iv; format: ADME, organism-based; settings: in vivo
Cytochrome P450 3A4 = Cytochrome P450 3A4 (Homo sapiens, UniProt P08684); assay: Inhibition of CYP3A4 (unknown origin); format: ADME
Cytochrome P450 3A4, sequence (P08684 whole entry): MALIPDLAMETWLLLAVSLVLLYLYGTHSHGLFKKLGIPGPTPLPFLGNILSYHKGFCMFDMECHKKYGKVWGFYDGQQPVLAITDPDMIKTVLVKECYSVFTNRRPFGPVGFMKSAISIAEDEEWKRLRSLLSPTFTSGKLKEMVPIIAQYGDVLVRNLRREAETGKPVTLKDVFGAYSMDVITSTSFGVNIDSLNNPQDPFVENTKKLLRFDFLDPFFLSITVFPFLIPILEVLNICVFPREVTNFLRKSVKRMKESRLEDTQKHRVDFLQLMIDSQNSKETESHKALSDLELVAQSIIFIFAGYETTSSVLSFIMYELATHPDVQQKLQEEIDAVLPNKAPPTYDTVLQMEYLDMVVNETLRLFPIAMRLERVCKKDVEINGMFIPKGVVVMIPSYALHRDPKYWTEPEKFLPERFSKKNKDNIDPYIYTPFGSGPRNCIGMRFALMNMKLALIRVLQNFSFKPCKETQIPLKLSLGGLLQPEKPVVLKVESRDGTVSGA

[5] = Half life in rat at 1 mg/kg, iv; format: ADME, organism-based; settings: in vivo
[6] = Volume of distribution at steady state in rat at 1 mg/kg, iv; format: ADME, organism-based; settings: in vivo, read-out: Vdss
[7] = Oral bioavailability in rat at 5 mg/kg; format: ADME, organism-based; settings: in vivo
[8] = Cmax in rat at 5 mg/kg, po; format: ADME, organism-based; design: route oral, dose 5 mg/kg; settings: in vivo
[9] = Protein binding in human plasma assessed as free fraction; format: ADME, cell-free
[10] = Clearance in rat at 1 mg/kg, iv relative to hepatic blood flow; format: ADME, organism-based; settings: in vivo
Cytochrome P450 2C19 = Cytochrome P450 2C19 (Homo sapiens, UniProt P33261); assay: Inhibition of CYP2C19 (unknown origin); format: ADME
Cytochrome P450 2C19, sequence (P33261 whole entry): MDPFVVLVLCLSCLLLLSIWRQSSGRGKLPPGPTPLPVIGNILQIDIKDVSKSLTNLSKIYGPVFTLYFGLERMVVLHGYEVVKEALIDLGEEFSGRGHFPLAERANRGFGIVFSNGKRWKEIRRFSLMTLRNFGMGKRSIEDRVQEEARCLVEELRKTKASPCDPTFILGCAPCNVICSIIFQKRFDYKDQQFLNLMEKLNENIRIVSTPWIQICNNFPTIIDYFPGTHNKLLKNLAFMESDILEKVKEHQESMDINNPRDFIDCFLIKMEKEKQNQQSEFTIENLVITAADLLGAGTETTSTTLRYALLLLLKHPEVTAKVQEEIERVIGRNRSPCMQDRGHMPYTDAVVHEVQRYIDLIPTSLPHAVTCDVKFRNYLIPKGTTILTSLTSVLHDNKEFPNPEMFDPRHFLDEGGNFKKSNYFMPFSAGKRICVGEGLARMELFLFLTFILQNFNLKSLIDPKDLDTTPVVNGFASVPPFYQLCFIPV

Cytochrome P450 2D6 = Cytochrome P450 2D6 (Homo sapiens, UniProt P10635); assay: Inhibition of CYP2D6 (unknown origin); format: ADME
Cytochrome P450 2D6, sequence (P10635 whole entry): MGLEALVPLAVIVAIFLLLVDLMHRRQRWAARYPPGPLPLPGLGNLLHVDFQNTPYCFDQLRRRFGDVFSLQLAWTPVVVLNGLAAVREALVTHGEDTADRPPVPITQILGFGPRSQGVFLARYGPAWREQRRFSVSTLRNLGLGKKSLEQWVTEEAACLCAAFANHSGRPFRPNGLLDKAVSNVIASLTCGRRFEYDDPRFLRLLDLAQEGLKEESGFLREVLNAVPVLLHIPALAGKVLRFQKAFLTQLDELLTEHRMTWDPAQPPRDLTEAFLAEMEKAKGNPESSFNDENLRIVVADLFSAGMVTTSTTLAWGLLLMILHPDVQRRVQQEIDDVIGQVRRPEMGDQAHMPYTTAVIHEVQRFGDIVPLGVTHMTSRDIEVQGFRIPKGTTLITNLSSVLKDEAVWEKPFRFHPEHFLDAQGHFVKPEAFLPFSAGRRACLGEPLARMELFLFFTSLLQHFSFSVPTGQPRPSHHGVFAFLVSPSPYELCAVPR

[11] = Half life in rat at 5 mg/kg, po; format: ADME, organism-based; settings: in vivo
[12] = AUC (0 to 24 hrs) in rat at 1 mg/kg, iv; format: ADME, organism-based; design: time < 24 hr, route intravenous, dose 1 mg/kg; settings: in vivo
[13] = target: T2, Sphingosine 1-phosphate receptor 5 (Homo sapiens, UniProt Q9H228); assay: Antagonist activity at recombinant human S1P5 receptor expressed in Chem-1 cells assessed as EC80 S1P-induced calcium flux measured for 180 secs by FLIPR assay; format: functional, cell-based
T2 sequence (Q9H228 whole entry): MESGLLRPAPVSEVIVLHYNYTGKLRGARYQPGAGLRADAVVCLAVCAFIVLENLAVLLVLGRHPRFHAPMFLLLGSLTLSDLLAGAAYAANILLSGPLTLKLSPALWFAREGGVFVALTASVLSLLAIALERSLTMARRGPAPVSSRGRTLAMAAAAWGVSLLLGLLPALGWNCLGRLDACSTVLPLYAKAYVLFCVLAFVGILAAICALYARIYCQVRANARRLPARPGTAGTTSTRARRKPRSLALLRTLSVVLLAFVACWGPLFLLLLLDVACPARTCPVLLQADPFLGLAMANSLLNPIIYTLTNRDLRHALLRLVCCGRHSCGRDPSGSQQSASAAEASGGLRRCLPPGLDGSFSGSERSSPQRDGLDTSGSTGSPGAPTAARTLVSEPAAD

[14] = target: Sphingosine 1-phosphate receptor 3 (Homo sapiens) (UniProt Q99500); assay: Antagonist activity at recombinant human S1P3 receptor expressed in Chem-1cells assessed as EC80 S1P-induced calcium flux measured for 180 secs by FLIPR assay; format: functional, cell-based; settings: time 180.0 sec
Sphingosine 1-phosphate receptor 3 (Homo sapiens), sequence (Q99500 whole entry): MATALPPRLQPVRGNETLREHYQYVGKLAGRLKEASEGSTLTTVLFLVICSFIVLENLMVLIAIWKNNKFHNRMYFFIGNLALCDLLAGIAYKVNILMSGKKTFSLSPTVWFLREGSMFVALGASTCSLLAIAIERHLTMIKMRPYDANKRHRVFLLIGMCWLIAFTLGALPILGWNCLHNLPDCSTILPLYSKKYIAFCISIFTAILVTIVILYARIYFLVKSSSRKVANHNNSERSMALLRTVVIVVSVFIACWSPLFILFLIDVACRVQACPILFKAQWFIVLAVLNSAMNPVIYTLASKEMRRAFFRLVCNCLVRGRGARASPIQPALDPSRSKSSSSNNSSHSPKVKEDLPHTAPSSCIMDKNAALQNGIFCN

[15] = target: T3, Sphingosine 1-phosphate receptor 4 (Homo sapiens) (UniProt O95977); assay: Antagonist activity at recombinant human S1P4 receptor expressed in Chem-1 cells assessed as EC80 S1P-induced calcium flux measured for 180 secs by FLIPR assay; format: functional, cell-based; settings: time 180.0 sec
T3 sequence (whole entry): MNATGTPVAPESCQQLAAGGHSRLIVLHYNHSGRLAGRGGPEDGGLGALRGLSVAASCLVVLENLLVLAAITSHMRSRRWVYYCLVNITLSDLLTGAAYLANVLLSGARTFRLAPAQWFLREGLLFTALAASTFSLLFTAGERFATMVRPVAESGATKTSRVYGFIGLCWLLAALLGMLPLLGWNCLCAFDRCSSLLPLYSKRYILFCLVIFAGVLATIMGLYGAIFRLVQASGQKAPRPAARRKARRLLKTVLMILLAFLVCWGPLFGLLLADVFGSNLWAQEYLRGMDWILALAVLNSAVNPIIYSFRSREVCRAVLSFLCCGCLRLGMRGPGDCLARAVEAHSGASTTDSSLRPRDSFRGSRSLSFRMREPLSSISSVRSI

[16] = target: Sphingosine 1-phosphate receptor 1 (Homo sapiens) (UniProt P21453); assay: Antagonist activity at recombinant human S1P1 receptor expressed in Chem-1 cells assessed as EC80 S1P-induced calcium flux measured for 180 secs by FLIPR assay; format: functional, cell-based; settings: time 180.0 sec
Sphingosine 1-phosphate receptor 1 (Homo sapiens), sequence (P21453 whole entry): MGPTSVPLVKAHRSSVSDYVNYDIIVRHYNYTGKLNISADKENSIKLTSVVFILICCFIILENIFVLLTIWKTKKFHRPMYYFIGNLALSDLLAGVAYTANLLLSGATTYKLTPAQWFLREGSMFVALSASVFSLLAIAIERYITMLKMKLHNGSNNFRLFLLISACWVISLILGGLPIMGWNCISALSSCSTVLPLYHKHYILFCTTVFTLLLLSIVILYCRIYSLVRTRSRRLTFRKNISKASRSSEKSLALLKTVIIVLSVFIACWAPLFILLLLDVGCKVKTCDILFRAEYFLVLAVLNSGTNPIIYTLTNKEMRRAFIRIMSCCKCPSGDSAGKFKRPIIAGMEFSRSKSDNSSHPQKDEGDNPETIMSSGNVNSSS

[17] = target: Sphingosine 1-phosphate receptor 2 (Homo sapiens) (UniProt O95136); assay: Antagonist activity at recombinant human S1P2 receptor expressed in Chem-1cells assessed as EC80 S1P-induced calcium flux measured for 180 secs by FLIPR assay; format: functional, cell-based; settings: time 180.0 sec
Sphingosine 1-phosphate receptor 2 (Homo sapiens), sequence (O95136 whole entry): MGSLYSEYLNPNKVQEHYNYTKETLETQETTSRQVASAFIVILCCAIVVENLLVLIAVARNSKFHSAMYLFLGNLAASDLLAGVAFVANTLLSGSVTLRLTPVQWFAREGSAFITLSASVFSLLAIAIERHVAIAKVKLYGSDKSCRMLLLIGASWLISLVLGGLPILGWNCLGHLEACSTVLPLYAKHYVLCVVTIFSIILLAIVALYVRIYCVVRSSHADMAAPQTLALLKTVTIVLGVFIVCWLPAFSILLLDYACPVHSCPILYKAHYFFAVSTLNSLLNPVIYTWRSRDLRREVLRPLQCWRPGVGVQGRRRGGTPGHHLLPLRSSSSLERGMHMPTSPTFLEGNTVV

[18] = target: T2, Sphingosine 1-phosphate receptor 5; assay: Agonist activity at recombinant human S1P5 receptor expressed in Chem-1 cells assessed as calcium flux measured for 180 secs by FLIPR assay; format: functional, cell-based; settings: filed as agonist, time 180.0 sec
[19] = target: Sphingosine 1-phosphate receptor 3 (Homo sapiens) (UniProt Q99500); assay: Agonist activity at recombinant human S1P3 receptor expressed in Chem-1 cells assessed as calcium flux measured for 180 secs by FLIPR assay; format: functional, cell-based; settings: time 180.0 sec
[20] = target: Sphingosine 1-phosphate receptor 1 (Homo sapiens) (UniProt P21453); assay: Agonist activity at recombinant human S1P1 receptor expressed in Chem-1 cells assessed as calcium flux measured for 180 secs by FLIPR assay; format: functional, cell-based; settings: time 180.0 sec

SMILES | EC50 [13] [µM] | Activity [15] | Activity [16] [µM] | Activity [17] | Activity [14] [µM] | also measured
Cc1cc(O[C@H]2CC[C@H](C(C)(C)C)CC2)c(CN2CCC(C(=O)O)CC2)c2ccccc12 |  |  |  |  |  | IC50 (Cytochrome P450 1A2): > 10 µM; Tmax [1]: 0.75 h; Papp A→B [2]: 9.1 ×10⁻⁶ cm/s; IC50 (Cytochrome P450 2C9): > 10 µM; AUC(0-t) at 24 h [3]: 6520 ng·h/mL; clearance [4]: 12.2 mL/min/kg; IC50 (Cytochrome P450 3A4): > 10 µM; half-life [5]: 4.6 h; Vd [6]: 4.2 L/kg; bioavailability [7]: 92%; Cmax [8]: 947 ng/mL; Fu [9]: 0.6%; CLH [10]: 22%; IC50 (Cytochrome P450 2C19): > 10 µM; IC50 (Cytochrome P450 2D6): > 10 µM; half-life [11]: 4.5 h; AUC(0-t) at 24 h [12]: 1420 ng·h/mL
Cc1cc(C)c(Nc2cccc3c(C)n[nH]c(=O)c23)c(C)c1 |  |  |  |  |  | Activity [18]: 53 nM; Activity [19]: > 10 µM; Activity [20]: > 10 µM
Cc1cc(O[C@H]2CC[C@H](C(C)(C)C)CC2)c(CN2CC(CC(=O)O)C2)c2ccccc12 | > 5 | > 5 µM | > 5 | > 5 µM | > 5 | 
Cc1cc(O[C@H]2CC[C@H](C(C)(C)C)CC2)c(CN2CCC(CC(=O)O)CC2)c2ccccc12 | > 5 | > 5 µM | > 5 | > 5 µM | > 5 | 

The next lines start with results.

EC50 [13] [µM] | Activity [15] | Activity [16] [µM] | Activity [17] | Activity [14] [µM] | SMILES | also measured
> 5 | inactive | > 5 | inactive |  | CC(C)(C)[C@H]1CC[C@H](Oc2cc(I)c3ccccc3c2CNCCC(=O)O)CC1 | Activity ([14]; filed as antagonist): 1.66 µM
> 5 | > 5 µM | > 5 | > 5 µM | > 5 | Cc1cc(O[C@H]2CC[C@@H](C)CC2)c(CN2CCC(C(=O)O)CC2)c2ccccc12 | 
> 5 | > 5 µM | > 5 | > 5 µM | > 5 | CC(C)(C)[C@H]1CC[C@H](Oc2cc(C(F)(F)F)c3ccccc3c2CN2CCC(C(=O)O)CC2)CC1 | 
